Laboratory results from the SangsterLogP compilation.

| Structure (SMILES) | logP |
| --- | --- |
| CCCCCCCCNc1ccncc1S(=O)(=O)NC(=C[N+](=O)[O-])NCCCCCC | 2.31 |
| O=[N+]([O-])C=C(NC1CCCCC1)NS(=O)(=O)c1cnccc1NC1CCCCC1 | 1.59 |
| CCNc1ccncc1S(=O)(=O)NC(=C[N+](=O)[O-])NC(C)C | -0.48 |
| CCCCCCCCNC(=C[N+](=O)[O-])NS(=O)(=O)c1cnccc1NCCCCCC | 2.27 |
| CCCCCCNC(=C[N+](=O)[O-])NS(=O)(=O)c1cnccc1NCCCCCC | 1.67 |
| CCCCCCCNC(=C[N+](=O)[O-])NS(=O)(=O)c1cnccc1NCCCCCCC | 2.3 |
| CCCCCCCCNc1ccncc1S(=O)(=O)NC(=C[N+](=O)[O-])NCCCCCCC | 2.59 |
| CCCCCCCNc1ccncc1S(=O)(=O)NC(=C[N+](=O)[O-])NCCCCCC | 1.99 |
| CCCCCCNC(=C[N+](=O)[O-])NS(=O)(=O)c1cnccc1Nc1cccc(C)c1 | 1.66 |
| CCCCCCCCNC(=C[N+](=O)[O-])NS(=O)(=O)c1cnccc1NCCCCCCCC | 2.86 |
| CCCCCCCNC(=C[N+](=O)[O-])NS(=O)(=O)c1cnccc1NCCCCCC | 1.97 |
